# Results reported in US20160074428A1, “COMPOSITIONS AND METHODS FOR THE TREATMENT OF HUMAN IMMUNODEFICIENCY VIRUS INFECTION” (THE CHILDREN'S HOSPITAL OF PHILADELPHIA, priority 2013, published 2016).
# No end group written: not given here.
# Tests used:
# [1] = molecular target: T1, NK1R (Homo sapiens, UniProt P25103); assay: Intracellular calcium measurement by flow cytometry (Fluo-4/Fura-red ratio) in monocytes; type: cell-based
# T1 construct: endogenous in cells; host or cells: freshly isolated human blood monocytes (gated within PBMC)
# Description: (§1) Intracellular calcium measurements. Freshly isolated monocytes were washed in Hank's balanced salt solution (HBSS) containing 1 mM calcium chloride then loaded with Fluo-4 AM (2 μM) and Fura-red AM (2 μM). Intracellular calcium recordings were performed using the Accuri C6 Analyzer (BD Biosciences, San Jose, Calif.). Fluorescence intensities were recorded in FL1-A (Fluo-4 AM) and FL3-A (Fura-red AM) channels. Intracellular calcium measurements were quantified by calculating the ratio between FL1-A/FL3-A values as a derived parameter in FlowJo 7.6.5 for Windows (Treestar Inc., Ashland, Oreg.) as previously described (1).
# Gating on lymphocyte and monocyte populations was performed based of light scattering properties of the cells (FIG. 1A).
# [2] = test system: HIV-GFP-tagged reporter virus pSF162R3 Nef+; assay: Infection of macrophages with HIV-GFP-tagged reporter virus, GFP fluorescence; type: cell-based; settings: 0, 2, 10 or 50 μg/ml HbHp complex, 7 days postinfection
# Description: FIG. 5. Effect of HbHp-complexes on HIV infection in macrophages. Hb and Hp were added to macrophages in a 1:1 molar ratio and incubated for 2 h at 37° C. a) Macrophages, treated with 0, 2, 10 or 20 μg/ml of HbHp complex and infected with HIV-BaL, were assayed 7 days postinfection for HIV GAG by real time RT PCR. b) Macrophages, treated with 0, 2, 10 or 50 μg/ml of HbHp complex and infected with HIV-GFP-tagged reported virus, were assayed 7 days postinfection for GFP fluorescence. c) Representative images of macrophages, treated with 0, 2, 10, and 50 μg/ml of HbHp complex and infected with HIV-GFP-tagged reported virus 7 days postinfection. Average results of three independent experiments are presented as mean±SD.
# Virus. The M-tropic HIV-1 R5 strain Bal was obtained from the NIH AIDS Reagent Program. The HIV-GFP-tagged reporter virus pSF162R3 Nef+, was made based on HIV-SF162 strain and was a gift from Dr. Amanda Brown (John Hopkins School of Medicine, Baltimore, Md.) (45).
# Microscopy. Macrophages were infected with HIV-GFP-tagged reported virus pSF162R3 Nef+. […] GFP intensity was quantified using ImageJ (National Institute of Mental Health, Bethesda, Md., USA).
# [3] = test system: HIV-Bal; assay: HIV-Bal infection of macrophages, HIV gag mRNA by real time RT-PCR; type: cell-based, HIV-1; settings: 0, 2, 10 or 20 μg/ml HbHp complex, 7 days postinfection
# Description: HIV infection. Macrophages were incubated with HIV-Bal virus overnight, and then extensively washed to remove unbound virus. The culture medium and the reagents were replaced twice weekly. At days 5, 7, 9 and 11 post HIV infection, cellular RNA was extracted from the MDM for assessment of HIV gag mRNA expression using real time RT-PCR assays.
# RNA Extraction and Real-Time RT PCR Assays. Total RNA was extracted from macrophages using RNeasy kit (Qiagen), and the potential DNA contamination was eliminated by on-column DNase digestion as instructed by the manufacturer (Qiagen). RNA concentration was determined by Qubit fluorometer using Quant-iT RNA Assay kit (Invitrogen, Eugene, Oreg.).
# Total RNA (1 μg) was reverse transcribed using AffinityScript QPCR cDNA Synthesis kit ([…], Cedar Creek, Tex.) with random primer as instructed by the manufacture. Reverse transcriptase negative controls were used in order to control for genomic DNA contamination. 1 μl of the resulting cDNA was used as a template for real-time PCR amplification.
# RNA Interference (RNAi). RNAi CD163 pool and control RNAi was purchased from Santa Cruz Biotechnologies. The siRNAs pool was transfected into macrophages with Lipofectamine RNAimax (Invitrogen), following the manufacturer's protocol. Experiments were carried out 48 h after transfection.
# [4] = test system: HIV; settings: cited from earlier work
# [5] = test system: CD163; assay: CD163 measurement by flow cytometry on monocytes/macrophages; type: cell-based, human; settings: for CD163 expression, time course: 10 μM SP
# Description: CD163 measurement by flow cytometry. For time-course experiments, freshly isolated monocytes were stimulated with either IL-10 (20 ng/ml) or SP (10 μM) and after 0, 2, 4 and 6 days of culture the cells were detached and the expression of membrane-bound CD163 was quantified by flow cytometry. For the dose-response experiments, freshly isolated monocytes were stimulated with either IL-10 (0.2, 0.6, 2, 6 or 20 ng/ml) or SP (0.3, 1, 3, 10 or 30 μM) and after 4 days of culture the cells were detached for CD163 measurement. Macrophages were detached using Lidocaine (4 mg/ml) in HBSS with EDTA (1 mM) for 30 minutes at 37° C. Cells were labeled with anti-human CD163 antibody (clone R-20) conjugated with PE (Trillium Diagnostics, Scarborough, Me.) for 30 minutes at room temperature. After labeling, cells were washed and resuspended in Hank's balanced salt solution (HBSS). Flow cytometry experiments were performed on an Accuri C6 analyzer (BD Biosciences, San Jose, Calif.) in the Flow Cytometry Core Laboratory of the Children's Hospital of Philadelphia Research Institute.
# [6] = test system: lymphocytes; assay: Intracellular calcium measurement by flow cytometry in lymphocytes; type: cell-based, human; settings: SP at concentrations as high as 30 μM; data not shown
# Description: as §1
# SP induces intracellular calcium increase in human monocytes. Our previous studies have shown that in U373MG cell NK1R stimulates the release of Ca^2+ from intracellular stores though activation of phospholipase C. To assess whether the effect of SP on monocytes is due to activation of NK1R we examined the levels of intracellular Ca^2+. We used a ratiometric calcium assay, where PBMC were loaded with Fluo-4 and Fura-red, then stimulated again with SP or appropriate agonist. Gating on lymphocyte and monocyte populations was performed based of light scattering properties of the cells (FIG. 1A). […] This pharmacology profile of NK1R, with high concentrations of SP required to elicit a response is consistent with the truncated form of NK1R.
# T1 sequence (P25103 1-311): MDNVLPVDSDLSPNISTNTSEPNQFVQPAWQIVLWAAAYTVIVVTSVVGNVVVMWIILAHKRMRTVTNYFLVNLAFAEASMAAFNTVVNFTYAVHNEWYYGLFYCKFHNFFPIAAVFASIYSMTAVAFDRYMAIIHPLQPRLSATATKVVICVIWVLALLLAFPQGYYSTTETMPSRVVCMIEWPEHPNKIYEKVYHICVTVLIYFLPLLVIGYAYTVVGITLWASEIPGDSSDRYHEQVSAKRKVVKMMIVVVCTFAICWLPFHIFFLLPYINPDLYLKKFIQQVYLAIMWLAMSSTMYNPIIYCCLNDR
molecule,measurement,setting,value
"C[C@@H](O[C@H]1OCCN(Cc2n[nH]c(=O)[nH]2)[C@H]1c1ccc(F)cc1)c1cc(C(F)(F)F)cc(C(F)(F)F)c1 [Aprepitant, aprepitant]",effect on SP induced calcium response,[1]; pre-treatment with 50 μM for 15 minutes before adding 10 μM SP,abolished SP induced calcium response
"Hb-Hp complexes: hemoglobin-haptoglobin complexes, Hb and Hp added in a 1:1 molar ratio; ligand of CD163",number of infected cells/well (GFP fluorescence),[2],concentration-dependent decrease
same,"HIV infection of macrophages (HIV GAG, RT PCR)",[3],concentration-dependent decrease
Neurokinin B [NKB],Ca2+ response to agonist,"[1]; 10 μM agonist, SP induced a response in the same samples",failed to induce Ca^2+ responses
"Substance P (RPKPQQFFGLM; ends and bridges not checked; UniProt P20366 58-68, looked up) [SP, undecapeptide neurotransmitter of the tachykinin family; purchased from Sigma]",effect on HIV infection of MDM,[4],promotes HIV infection
same,extent of CD163 induction compared with IL-10,[5],lower extent than that induced by IL-10
same,"CD163 expression, time course",[5]; 4 days,significant increase
same,"CD163 expression, time course",[5]; 6 days,did not persist
same,"CD163 expression, dose response","[5]; SP 0.3-10 μM, 4 days",significant increase
same,levels of membrane bound CD163 with increasing doses,"[5]; monocytes in AIM V medium without FBS, 4 days after treatment",progressively higher
same,intracellular Ca2+ increase in lymphocytes,[6],did not induce intracellular Ca^2+ increase
"interleukin-10 (protein, UniProt P22301 19-178, looked up, anti-inflammatory mediator that upregulates CD163 expression) Interleukin-10: SPGQGTQSENSCTHFPGNLPNMLRDLRDAFSRVKTFFQMKDQLDNLLLKESLLEDFKGYLGCQALSEMIQFYLEEVMPQAENQDPDIKAHVNSLGENLKTLRLRLRRCHRFLPCENKSKAVEQVKNAFNKLQEKGIYKAMSEFDIFINYIEAYMTMKIRN","CD163 expression, dose response","[5]; 0.2 ng/ml IL-10, 4 days of culture",significant increase
same,"expression of CD163, time course","[5]; 20 ng/ml IL-10, 2 days",significant increase
same,"CD163 expression, dose response","[5]; 20 ng/ml IL-10, 4 days of culture",had not induced maximal increase
same,"expression of CD163, time course","[5]; 20 ng/ml IL-10, days 4 and 6, compared with day 2",higher
